Test results from patent US20250332300A1 (priority 2024, published 2025).
Read-outs that look alike come from different tables or passages of the source. Starred links: 1 amine or outer side, 2 acyl side, 3 side chain; linkers in the order of their positions; H or OH if unused. Positions of bridges follow the written chain, without caps; N, C: chain ends. Non-standard residues stand in square brackets, D forms with d. Residues, ends and D or L forms follow the SMILES beside them. Trp(5-OH) = N[C@@H](Cc1c[nH]c2ccc(O)cc12)C(=O)O; NMePhe(4-F) = CN[C@@H](Cc1ccc(F)cc1)C(=O)O; isoSer(2S) = O=C([C@@H](O)CN[*:1])[*:2]; NMehPhe = CN[C@@H](CCc1ccccc1)C(=O)O; NMeAhp(2) = CCCCC[C@H](NC)C(=O)O; NMeE = CN[C@@H](CCC(=O)O)C(=O)O; Aad = N[C@@H](CCCC(=O)O)C(=O)O; Gly(cPr) = N[C@H](C(=O)O)C1CC1; Ahp(2) = CCCCC[C@H](N)C(=O)O; NMeK = CN[C@@H](CCCCN)C(=O)O; NMeDap = CN[C@@H](CN)C(=O)O; NMeS = CN[C@@H](CO)C(=O)O; Dap = NC[C@H](N)C(=O)O

Experiments:
Format in all cases: binding
[1] = biological target: T1, mouse HER2 (23-653) (Mus musculus, UniProt P70424); assay: Surface plasmon resonance (SPR) for assessment of peptide affinity, mouse HER2; parameters: mouse HER2 (23-653) using a Cy5 labeled peptide as a probe; made in house; details: SPR, mouse HER2 extracellular domain, 25° C., 1:1 binding model; for Kd: read-out: moHER2-SPR-ONC KD
From the text: Each protein was immobilized either onto a SA sensorchip (Cytiva, BR-1005-31) or CM5 sensorchip (Cytiva, BR-1005-30) to a density of 800-2000 RU.

[2] = biological target: T1, mouse HER2 (23-653); assay: TR-FRET competition assay for peptide potency, mouse HER2; parameters: mouse HER2 (23-653) using a Cy5 labeled peptide as a probe; made in house; host or cells: mammalian cells; details: TR-FRET competition with Cy5 labeled peptide probe, 0.1 nM mouse HER2, 24 h incubation; read-out: moHER2 TR-FRET IC50
[3] = biological target: T2, human HER2 (23-652) (Homo sapiens, UniProt P04626); assay: TR-FRET competition assay for peptide potency, human HER2; parameters: towards human HER2 (23-652) and mouse HER2 (23-653); made in house; host or cells: mammalian cells
Method: Both proteins containing a His-, Avi-tag and biotin in Nterminus, were expressed in mammalian cells and produced in house. […] Standard assay conditions consist of 20 uL total volume in white 384-well plates (Greiner), in 10 mM HEPES buffer containing 150 mM NaCl, 3 mM EDTA, 0.05% Tween20 and 1% final DMSO. […] The ratiometric FRET assay readout is calculated from the ratio of the raw data of the two distinct fluorescence signals measured in time resolved mode (fluorescence 665 nm/fluorescence 620 nm). IC50 values were calculated with the standard Novartis in-house assay data analysis software (Helios software application, Novartis Institutes for BioMedical Research, unpublished) using the methods described in Comput. Methods. Programs. Biomed. 2006, 82, 31-37 (regression algorithms for nonlinear dose-response curve fitting).

[4] = biological target: T2, human HER2 (23-652); assay: Surface plasmon resonance (SPR) for assessment of peptide affinity, human HER2; parameters: towards human HER2 (23-652) and mouse HER2 (23-653); made in house; details: SPR, human HER2 extracellular domain, 25° C., 1:1 binding model; for Kd: read-out: huHER2-SPR-ONC KD
Outline: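 Binding kinetics fitted from sensorgrams with 280 s peptide association then 3000 s dissociation (30 uL/min), using HER2 (23-652) either directly immobilized (SA/CM5) or anti-Fc-captured; 3 M magnesium chloride used for regeneration.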

[5] = TR-FRET competition with Cy5 labeled peptide probe, 0.1 nM human HER2, 24 h incubation, read-out: huHER2 TR-FRET IC50

Kd [1]	IC50 [2]	IC50 [3, 5]	IC50 ([3]; value in parentheses (**): recalculated after further repetition, read-out: huHER2 TR-FRET IC50, recalculated value achieved after further repetition)	huHER2-SPR-ONC KD [4]	moHER2-SPR-ONC KD [1]	IC50 ([3]; read-out: huHER2 TR-FRET IC50)	Kd [4]	Compound
9.3 nM	13 nM	13 nM	11 nM	–	–	–	–	CC(=O)NCCCC[C@H]1C(=O)N[C@@H](Cc2c[nH]c3ccc(O)cc23)C(=O)N[C@@H](Cc2c[nH]c3ccccc23)C(=O)N[C@@H]([C@H](C)O)C(=O)N(C)[C@H](C(=O)N(C)[C@@H](Cc2ccc(F)cc2)C(=O)N[C@@H](CCCCNC(=O)N2CCN(CC(=O)O)CC2)C(=O)N[C@@H](CCCCNC(=O)CN2CCN(CC(=O)O)CCN(CC(=O)O)CCN(CC(=O)O)CC2)C(N)=O)CNC(=O)CC[C@H](NC(C)=O)C(=O)N[C@@H](Cc2ccc(O)cc2)C(=O)N[C@@H](CO)C(=O)N(C)[C@@H](CCc2ccccc2)C(=O)N1C [Example C24]
–	> 1000 nM	–	–	no binding*	no binding*	> 1000 nM	–	CC(=O)N[C@H]1CNC(=O)CC[C@@H](C(=O)N(C)[C@@H](Cc2ccc(F)cc2)C(N)=O)N(C)C(=O)[C@H](C2CC2)NC(=O)[C@H](Cc2c[nH]c3ccccc23)NC(=O)[C@H](Cc2c[nH]c3ccc(O)cc23)NC(=O)[C@H](CO)N(C)C(=O)[C@H](CCc2ccccc2)N(C)C(=O)[C@H](CO)NC(=O)[C@H](Cc2ccc(O)cc2)NC1=O [Example A19, (3S,6S,9S,12S,15S,18S,21S,24S,30S)-6-((1H-indol-3-yl)methyl)-24-acetamido-N-((S)-1-amino-3-(4-fluorophenyl)-1-oxopropan-2-yl)-3-cyclopropyl-9-((5-hydroxy-1H-indol-3-yl)methyl)-21-(4-hydroxybenzyl)-12,18-bis(hydroxymethyl)-N,1,13,16-tetramethyl-2,5,8,11,14,17,20,23,27-nonaoxo-15-phenethyl-1,4,7,10,13,16,19,22,26-nonaazacyclotriacontane-30-carboxamide] (Ac-[Dap]YS[NMehPhe][NMeS][Trp(5-OH)]W[Gly(cPr)][NMeE][NMePhe(4-F)]-NH2; lactam 1-9)
786 nM	> 1000 nM	–	–	–	–	966 nM	445 nM	CCCCC[C@@H]1NC(=O)[C@H](CCCCNC(C)=O)N(C)C(=O)[C@H](CCc2ccccc2)N(C)C(=O)[C@H](CO)NC(=O)[C@H](Cc2ccc(O)cc2)NC(=O)[C@@H](NC(C)=O)CCCC(=O)NC[C@@H](C(=O)N(C)[C@@H](Cc2ccc(F)cc2)C(N)=O)N(C)C(=O)[C@H](C2CC2)NC(=O)[C@H](Cc2c[nH]c3ccccc23)NC1=O [Example A11, (3S,6S,9S,12S,15S,18S,21S,24S,27S)-9-((1H-indol-3-yl)methyl)-27-acetamido-15-(4-acetamidobutyl)-N-((S)-1-amino-3-(4-fluorophenyl)-1-oxopropan-2-yl)-6-cyclopropyl-24-(4-hydroxybenzyl)-21-(hydroxymethyl)-N,4,16,19-tetramethyl-5,8,11,14,17,20,23,26,31-nonaoxo-12-pentyl-18-phenethyl-1,4,7,10,13,16,19,22,25-nonaazacyclohentriacontane-3-carboxamide] (Ac-[Aad]YS[NMehPhe][NMeK](Ac)[Ahp(2)]W[Gly(cPr)][NMeDap][NMePhe(4-F)]-NH2; lactam 1-9)
< 0.1 nM	–	< 0.1 nM	–	–	–	–	< 0.1 nM	CC(=O)NCCCC[C@H]1C(=O)N[C@@H](Cc2c[nH]c3ccc(O)cc23)C(=O)N[C@@H](Cc2c[nH]c3ccccc23)C(=O)N[C@@H](C2CC2)C(=O)N(C)[C@H](C(=O)N(C)[C@@H](Cc2ccc(F)cc2)C(=O)N[C@@H](CCCCNC(=O)CCC(C(=O)O)N2CCN(CC(=O)O)CCN(CC(=O)O)CC2)C(N)=O)CNC(=O)CCC[C@H](NC(C)=O)C(=O)N[C@@H](Cc2ccc(O)cc2)C(=O)N[C@@H](CO)C(=O)N(C)[C@@H](CCc2ccccc2)C(=O)N1C (single isomer, unassigned) [Example C35]
2.7 nM	5.5 nM	–	–	–	–	3 nM	–	CC(=O)NCCCC[C@H]1C(=O)N[C@@H](Cc2c[nH]c3ccc(O)cc23)C(=O)N[C@@H](Cc2c[nH]c3ccccc23)C(=O)N[C@@H](C2CC2)C(=O)N(C)[C@H](C(=O)N(C)[C@@H](Cc2ccc(F)cc2)C(N)=O)CCC(=O)NC[C@H](O)C(=O)N[C@@H](Cc2ccc(O)cc2)C(=O)N[C@@H](CO)C(=O)N(C)[C@@H](CCc2ccccc2)C(=O)N1C [Example A23, (3S,6S,9S,12S,15S,18S,21S,24S,30S)-6-((1H-indol-3-yl)methyl)-12-(4-acetamidobutyl)-N-((S)-1-amino-3-(4-fluorophenyl)-1-oxopropan-2-yl)-3-cyclopropyl-24-hydroxy-9-((5-hydroxy-1H-indol-3-yl)methyl)-21-(4-hydroxybenzyl)-18-(hydroxymethyl)-N,1,13,16-tetramethyl-2,5,8,11,14,17,20,23,27-nonaoxo-15-phenethyl-1,4,7,10,13,16,19,22,26-nonaazacyclotriacontane-30-carboxamide] ([isoSer(2S)]YS[NMehPhe][NMeK](Ac)[Trp(5-OH)]W[Gly(cPr)][NMeE][NMePhe(4-F)]-NH2; lactam N-9)
1.2 nM	3.7 nM	–	–	–	–	–	1.3 nM	CCCCC[C@H]1C(=O)N(C)[C@@H](CCCCNC(C)=O)C(=O)N[C@@H](Cc2c[nH]c3ccc(O)cc23)C(=O)N[C@@H](Cc2c[nH]c3ccccc23)C(=O)N[C@@H](C2CC2)C(=O)N(C)[C@H](C(=O)N(C)[C@@H](Cc2ccc(F)cc2)C(N)=O)CNC(=O)CCC[C@H](NC(C)=O)C(=O)N[C@@H](Cc2ccc(O)cc2)C(=O)N[C@@H](CO)C(=O)N1C [Example A14, (3S,6S,9S,12S,15S,18S,21S,24S,27S)-9-((1H-indol-3-yl)methyl)-27-acetamido-15-(4-acetamidobutyl)-N-((S)-1-amino-3-(4-fluorophenyl)-1-oxopropan-2-yl)-6-cyclopropyl-12-((5-hydroxy-1H-indol-3-yl)methyl)-24-(4-hydroxybenzyl)-21-(hydroxymethyl)-N,4,16,19-tetramethyl-5,8,11,14,17,20,23,26,31-nonaoxo-18-pentyl-1,4,7,10,13,16,19,22,25-nonaazacyclohentriacontane-3-carboxamide] (Ac-[Aad]YS[NMeAhp(2)][NMeK](Ac)[Trp(5-OH)]W[Gly(cPr)][NMeDap][NMePhe(4-F)]-NH2; lactam 1-9)
93 nM	162 nM	–	–	–	–	82 nM	–	CC(=O)N[C@H]1CCC(=O)NC[C@@H](C(=O)N(C)[C@@H](Cc2ccc(F)cc2)C(N)=O)N(C)C(=O)[C@H](C2CC2)NC(=O)[C@H](Cc2c[nH]c3ccccc23)NC(=O)[C@H](Cc2c[nH]c3ccc(O)cc23)NC(=O)[C@H](CO)N(C)C(=O)[C@H](CCc2ccccc2)N(C)C(=O)[C@H](CO)NC(=O)[C@H](Cc2ccc(O)cc2)NC1=O [Example A25, (3S,6S,9S,12S,15S,18S,21S,24S,27S)-9-((1H-indol-3-yl)methyl)-27-acetamido-N—((S)-1-amino-3-(4-fluorophenyl)-1-oxopropan-2-yl)-6-cyclopropyl-12-((5-hydroxy-1H-indol-3-yl)methyl)-24-(4-hydroxybenzyl)-15,21-bis(hydroxymethyl)-N,4,16,19-tetramethyl-5,8,11,14,17,20,23,26,30-nonaoxo-18-phenethyl-1,4,7,10,13,16,19,22,25-nonaazacyclotriacontane-3-carboxamide]

Compound	Kd [1]	IC50 [2]	IC50 [3, 5]	IC50 ([3]; value in parentheses (**): recalculated after further repetition, read-out: huHER2 TR-FRET IC50, recalculated value achieved after further repetition)	huHER2-SPR-ONC KD [4]	moHER2-SPR-ONC KD [1]	IC50 ([3]; read-out: huHER2 TR-FRET IC50)	Kd [4]
COCCOCCOCCOCCOCCOCCOCCOCCOCCOCCOCCOCCC(=O)N[C@H]1CCCC(=O)NC[C@@H](C(=O)N(C)[C@@H](Cc2ccc(F)cc2)C(=O)N[C@@H](CCCCNC(=O)CN2CCN(CC(=O)O)CCN(CC(=O)O)CCN(CC(=O)O)CC2)C(N)=O)N(C)C(=O)[C@H](C2CC2)NC(=O)[C@H](Cc2c[nH]c3ccccc23)NC(=O)[C@H](Cc2c[nH]c3ccc(O)cc23)NC(=O)[C@H](CCCCNC(C)=O)N(C)C(=O)[C@H](CCc2ccccc2)N(C)C(=O)[C@H](CO)NC(=O)[C@H](Cc2ccc(O)cc2)NC1=O [Example C37]	0.3 nM	0.4 nM	0.1 nM	–	–	–	–	–
